Laboratory results taken from US8143293B2, “Kinase inhibitors useful for the treatment of myleoprolific diseases and other proliferative diseases” (Deciphera Pharmaceuticals, LLC, priority 2007, dated 2012).

Assays:
[1] = molecular target: T1, C-Met kinase (SEQ ID NO:10) (Homo sapiens, UniProt P08581); experiment: C-Met kinase (SEQ ID NO:10) assay, pyruvate kinase/lactate dehydrogenase coupled; settings: 0.5 h preincubation, ATP 100 μM; read-out: Biochemical IC50, c-Met Enzyme Assay
T1 construct: 956-1390, from Invitrogen, catalogue #PV3143; His6 (N-terminal leader MSYYHHHHHH... with TEV and thrombin sites) (N); purchased Invitrogen PV3143
T1 sequence (P08581 with tags, fused parts or gaps): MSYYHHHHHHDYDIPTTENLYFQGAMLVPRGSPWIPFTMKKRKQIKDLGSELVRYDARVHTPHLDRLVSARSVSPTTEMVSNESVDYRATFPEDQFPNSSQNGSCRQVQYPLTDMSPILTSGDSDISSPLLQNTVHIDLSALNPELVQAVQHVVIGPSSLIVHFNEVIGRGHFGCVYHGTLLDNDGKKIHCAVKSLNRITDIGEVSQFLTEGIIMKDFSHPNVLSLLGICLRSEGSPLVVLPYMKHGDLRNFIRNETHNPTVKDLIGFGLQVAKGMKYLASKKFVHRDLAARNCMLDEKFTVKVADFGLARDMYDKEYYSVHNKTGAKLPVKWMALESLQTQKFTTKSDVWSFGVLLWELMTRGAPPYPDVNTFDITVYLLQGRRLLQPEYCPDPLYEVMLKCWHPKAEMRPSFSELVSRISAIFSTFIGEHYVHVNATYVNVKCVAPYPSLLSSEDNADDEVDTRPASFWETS
Experimental: C-Met Kinase (SEQ ID NO:10) Assay
Activity of C-Met kinase (SEQ ID NO:10) was determined by following the production of ADP from the kinase reaction through coupling with the pyruvate kinase/lactate dehydrogenase system (e.g., Schindler, et al. Science (2000) 289, 1938-1942). In this assay, the oxidation of NADH (thus the decrease at A340 nm) was continuously monitored spectrophometrically. The reaction mixture (100 μl) contained C-Met (c-Met residues; 956-1390, from Invitrogen, catalogue #PV3143, […]), polyE4Y (1 mg/ml), MgCl2 (10 mM), pyruvate kinase (4 units), lactate dehydrogenase (0.7 units), phosphoenol pyruvate (1 mM), and NADH (0.28 mM) in 90 mM Tris buffer containing 0.25 mM DTT, 0.2% octyl-glucoside and 1% DMSO, pH 7.5. Test compounds were incubated with C-Met (SEQ ID NO:10) and other reaction reagents at 22° C. for 0.5 h before ATP (100 μM) was added to start the reaction. The absorption at 340 nm was monitored continuously for 2 hours at 30° C. on Polarstar Optima plate reader (BMG). The reaction rate was calculated using the 1.0 to 2.0 h time frame. Percent inhibition was obtained by comparison of reaction rate with that of a control (i.e. with no test compound). IC50 values were calculated from a series of percent inhibition values determined at a range of inhibitor concentrations using software routines as implemented in the GraphPad Prism software package.

[2] = molecular target: T2, Abl kinase (SEQ ID NO: 1) (Homo sapiens, UniProt P00519); experiment: Abl kinase (SEQ ID NO:1) assay, pyruvate kinase/lactate dehydrogenase coupled; settings: 2 h preincubation, ATP 500 μM; read-out: Biochemical IC50, Abl Enzyme Assay
T2 construct: purchased deCode Genetics
T2 sequence (P00519 with tags, fused parts or gaps): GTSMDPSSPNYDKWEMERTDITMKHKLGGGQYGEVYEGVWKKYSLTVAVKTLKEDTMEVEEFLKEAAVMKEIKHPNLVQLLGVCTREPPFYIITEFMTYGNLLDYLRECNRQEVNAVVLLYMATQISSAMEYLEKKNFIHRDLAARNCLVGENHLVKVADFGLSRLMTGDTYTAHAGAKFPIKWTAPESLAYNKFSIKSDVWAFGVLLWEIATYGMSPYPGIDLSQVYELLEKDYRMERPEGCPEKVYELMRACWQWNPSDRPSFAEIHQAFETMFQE
Experimental: Abl Kinase (SEQ ID NO:1) Assay
Activity of Abl kinase (SEQ ID NO: 1) was determined by following the production of ADP from the kinase reaction through coupling with the pyruvate kinase/lactate dehydrogenase system (e.g., Schindler, et al. Science (2000) 289, 1938-1942). In this assay, the oxidation of NADH (thus the decrease at A340 nm) was continuously monitored spectrophometrically. The reaction mixture (100 μl) contained Abl kinase (1 nM. Abl from deCode Genetics), peptide substrate (EAIYAAPFAKKK, 0.2 mM), MgCl2 (10 mM), pyruvate kinase (4 units), lactate dehydrogenase (0.7 units), phosphoenol pyruvate (1 mM), and NADH (0.28 mM) in 90 mM Tris buffer containing 0.2% octyl-glucoside and 3.5% DMSO, pH 7.5. Test compounds were incubated with Abl (SEQ ID NO:1) and other reaction reagents at 30° C. for 2 h before ATP (500 μM) was added to start the reaction. The absorption at 340 nm was monitored continuously for 2 hours at 30° C. on Polarstar Optima plate reader (BMG). The reaction rate was calculated using the 1.0 to 2.0 h time frame. Percent inhibition was obtained by comparison of reaction rate with that of a control (i.e. with no test compound). IC50 values were calculated from a series of percent inhibition values determined at a range of inhibitor concentrations using software routines as implemented in the GraphPad Prism software package.

[3] = molecular target: T3, BaF3 cells transfected with wild type p210 BCR-Abl (Homo sapiens, UniProt P00519); experiment: Ba/F3 p210 whole cell proliferation assay; type: cell-based; settings: 72 hours, Cell Titer Blue; read-out: Whole Cell Antiproliferation IC50, Ba/F3 p210 whole cell proliferation assay
T3 construct: fused on or other part: P11274 (Breakpoint cluster region protein)
Experimental: (§1) BaF3 cells (parental or transfected with the following: wild type p210 BCR-Abl and T315I p210 BCR-Abl was obtained from Professor Richard Van Etten (New England Medical Center, Boston, Mass.). Briefly, cells were grown in RPMI 1640 supplemented with 10% characterized fetal bovine serum (HyClone, Logan, Utah) at 37 degrees Celsius, 5% CO2, 95% humidity. Cells were allowed to expand until reaching 80% saturation at which point they were subcultured or harvested for assay use.
(§2) A serial dilution of test compound was dispensed into a 96 well black clear bottom plate (Corning, Corning, N.Y.). For each cell line, three thousand cells were added per well in complete growth medium. Plates were incubated for 72 hours at 37 degrees Celsius, 5% CO2, 95% humidity. At the end of the incubation period Cell Titer Blue (Promega, Madison, Wis.) was added to each well and an additional 4.5 hour incubation at 37 degrees Celsius, 5% CO2, 95% humidity was performed. Plates were then read on a BMG Fluostar Optima (BMG, Durham, N.C.) using an excitation of 544 nm and an emission of 612 nm. Data was analyzed using Prism software (Graphpad, San Diego, Calif.) to calculate IC50's.

[4] = molecular target: T4, c-Kit kinase (SEQ ID NO:9) (Homo sapiens, UniProt P10721); experiment: C-Kit kinase (SEQ ID NO:9) assay, pyruvate kinase/lactate dehydrogenase coupled; settings: <2 min preincubation, ATP 200 μM; read-out: Biochemical IC50, c-Kit Enzyme Assay
T4 construct: contained c-Kit (cKIT residues T544-V976, from ProQinase, 5.4 nM); purchased ProQinase
T4 sequence (P10721 with tags, fused parts or gaps): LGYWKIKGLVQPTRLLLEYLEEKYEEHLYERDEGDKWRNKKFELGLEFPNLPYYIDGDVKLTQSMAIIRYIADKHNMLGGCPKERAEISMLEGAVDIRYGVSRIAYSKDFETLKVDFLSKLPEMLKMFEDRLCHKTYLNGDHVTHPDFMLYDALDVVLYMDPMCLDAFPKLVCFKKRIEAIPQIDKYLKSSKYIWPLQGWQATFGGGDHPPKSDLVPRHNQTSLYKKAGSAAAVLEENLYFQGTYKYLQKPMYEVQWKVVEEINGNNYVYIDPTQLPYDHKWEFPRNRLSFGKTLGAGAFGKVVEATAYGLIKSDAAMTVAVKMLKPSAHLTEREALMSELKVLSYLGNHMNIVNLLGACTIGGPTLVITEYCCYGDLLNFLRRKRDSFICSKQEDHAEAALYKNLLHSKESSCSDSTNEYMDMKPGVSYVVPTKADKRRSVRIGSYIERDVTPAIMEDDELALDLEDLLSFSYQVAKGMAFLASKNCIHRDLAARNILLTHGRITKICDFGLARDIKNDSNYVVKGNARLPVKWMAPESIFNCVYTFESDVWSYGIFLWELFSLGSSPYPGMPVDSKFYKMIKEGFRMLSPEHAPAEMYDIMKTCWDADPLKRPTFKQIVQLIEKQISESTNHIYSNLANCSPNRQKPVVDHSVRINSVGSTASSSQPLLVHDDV
Experimental: C-Kit Kinase (SEQ ID NO:9) Assay
Activity of c-Kit kinase (SEQ ID NO:9) was determined by following the production of ADP from the kinase reaction through coupling with the pyruvate kinase/lactate dehydrogenase system (e.g., Schindler, et al. Science (2000) 289, 1938-1942). In this assay, the oxidation of NADH (thus the decrease at A340 nm) was continuously monitored spectrophometrically. The reaction mixture (100 μl) contained c-Kit (cKIT residues T544-V976, from ProQinase, 5.4 nM), polyE4Y (1 mg/ml), MgCl2 (10 mM), pyruvate kinase (4 units), lactate dehydrogenase (0.7 units), phosphoenol pyruvate (1 mM), and NADH (0.28 mM) in 90 mM Tris buffer containing 0.2% octyl-glucoside and 1% DMSO, pH 7.5. Test compounds were incubated with […] (SEQ ID NO:9) and other reaction reagents at 22° C. for <2 min before ATP (200 μM) was added to start the reaction. The absorption at 340 nm was monitored continuously for 0.5 hours at 30° C. on Polarstar Optima plate reader (BMG). The reaction rate was calculated using the 0 to 0.5 h time frame. Percent inhibition was obtained by comparison of reaction rate with that of a control (i.e. with no test compound). IC50 values were calculated from a series of percent inhibition values determined at a range of inhibitor concentrations using software routines as implemented in the GraphPad Prism software package.

[5] = molecular target: T5, BaF3 cells transfected with T315I p210 BCR-Abl (Homo sapiens, UniProt P00519, T315I, cells depend on it); experiment: Ba/F3 p210 T315I whole cell proliferation assay; type: cell-based; settings: 72 hours, Cell Titer Blue; read-out: Whole Cell Antiproliferation IC50, Ba/F3 p210 T315I whole cell proliferation assay
T5 construct: fused on or other part: P11274 (Breakpoint cluster region protein)
Experimental: as §1, §2

## Cn1cc(-c2cc(Oc3ccc(NC(=O)Nc4noc5ccccc45)c(F)c3)ccn2)cn1 [Example 24, 1-(benzo[d]isoxazol-3-yl)-3-(2-fluoro-4-(2-(1-methyl-1H-pyrazol-4-yl)pyridin-4-yloxy)phenyl)urea]
[1]
  IC50: < 10000 nM
[2]
  IC50: < 100 nM
[3]
  GI50: < 100 nM
[4]
  IC50: < 100 nM
[5]
  GI50: < 100000 nM
